{
  "source": "patent US20060135624A1",
  "about": "“Natural compound useful for treating diabetes, its preparation and use” (JINGYU LIANG ET AL, priority 2002, published 2006)",
  "key": {"[1]": {"system": "mouse hyperglycemia induced by alloxan", "assay": "Time-effect relation of Sequoyitol to mouse hyperglycemia induced by alloxan", "format": "in vivo, Kunming mice", "settings": "for blood-sugar level decreased compared to the control group: Sequoyitol 50 mg/kg p.o. 7 days", "procedure": "1. Experimental Methods^[1,2] • Alloxan was administrated to each of 30 mice by caudal vein injection with a dose of 65 mg/kg, and the mice were modeled according to the method of documents, divided into 3 groups according to blood-sugar values, […] according to […] of body weight, and the modeling group was administrated with the same volum of distilled water, separately. These administrations were conducted for continuous 7 days, and the mice were fasted for 2 hours before the last administration, and their blood-sugar levels were detected by glucose oxidase method at 1 2, 3 and 5 hours after the last administration."}, "[2]": {"system": "mouse hyperglycemia induced by alloxan", "assay": "Effects of Sequoyitol on mouse hyperglycemia induced by alloxan", "format": "in vivo, Kunming mice", "procedure": "1. Experimental Methods^[1,2] • Among 60 mice, 10 mice were randomly selected as normal group, and the residual mice were administrated with 65 mg/kg alloxan by caudal vein injection, modeled according to the method of documents, and divided into 5 groups according to blood-sugar values, wherein 4 groups were perorally administrated with 25, 50 and 100 mg/kg of Sequoyitol and 75 mg/kg of phenformine according to 0.1 ml/10 g of body weight, respectively, and the normal group and modeling group were administrated with the same volum of distilled water, separately. These administrations were conducted for continuous 7 days. The blood-sugar levels were detected by glucose oxidase method. The pancreatic glands of the mice were soaked in 10% formalin, embedded with paraffin, sliced, and dyed with HE dye."}, "[3]": {"system": "mouse hyperglycemia induced by adrenalin", "assay": "Effect of Sequoyitol on mouse hyperglycemia induced by adrenalin", "format": "in vivo, Kunming mice", "settings": "for hepatic glycogen level increased compared to the control group: adrenalin model; for blood-sugar level decreased compared to the control group: 30 minutes after adrenalin 0.2 mg/kg i.p.", "procedure": "1. Experimental Methods^[3] • 72 Mice were randomly divided into 6 groups, wherein 4 groups were orally administrated with 25, 50 and 100 mg/kg of Sequoyitol and 10 mg/kg of Glibenclamide according to 0,1 ml/10 g of body weight, respectively, and the normal group and modeling group were administrated with the same volum of distilled water. These administrations were conducted for continuous 7 days. The normal group was administrated with the same volum of physiological saline by injection, while other groups were administrated with 0.2 mg/kg of adrenalin by intra-abdominal injection. The blood-sugar levels were detected by glucose oxidase method after 30 minutes of administration. The livers of the mice were collected, and hepatic glycogen levels were detected by anthrone method."}, "[4]": {"system": "mouse hyperglycemia induced by glucose", "assay": "Effect of Sequoyitol on mouse hyperglycemia induced by glucose", "format": "in vivo, Kunming mice", "procedure": "1. Experimental Method^[4] • 72 Mice were randomly divided into 6 groups, […] according to 0.1 ml/10 g of body weight, respectively, and the normal group and modeling group were administrated with the same volum of distilled water. These administrations were conducted for continuous 7 days. The normal group was administrated with the same volum of physiological saline by injection, while other groups were administrated with […] of glucose by intra-abdominal injection. After 30, 60, 90 and 120 minutes of administration, bloods were collected from venous plexus behind fossa orbitalis, the serums were separated, and the blood-sugar levels were separately detected by glucose oxidase method."}, "[5]": {"system": "mouse hyperglycemia induced by Streptozocin", "assay": "Effect of Sequoyitol on mouse hyperglycemia induced by Streptozocin", "format": "in vivo, Kunming mice", "procedure": "1. Experimental Methods^[7,8] • Among 66 mice, 10 mice were randomly selected as normal group, and the residual mice were administrated with 160 mg/kg Streptozocin by vena caudalis injection, modeled according to methods of documents, and divided into 5 groups according to blood-sugar level, wherein 4 groups were perorally administrated with 25, 50 and 100 mg/kg of Sequoyitol and 75 mg/kg of phenformine according to 0.1 ml/10 g of body weight, respectively, and the normal group and modeling group were administrated with the same volum of distilled water. These administrations were conducted for continuous 18 days. The blood-sugar levels of the mice were separately measured at 6th and 12th day after the administration. At the 18th day, blood was collected by excising eyeballs, serum was separated, and the blood sugar level, insulin level, cholesterol content, triglyceride content, malonaldehyde content, and hepatocuprein activity of serum were measured; liver tissue was homogenated, and the malonaldehyde content and hepatocuprein activity of liver tissue were measured; and pancreatic gland was soaked in 10% formalin, embedded with paraffin, sliced, and dyed with HE."}, "normal mice [6]": {"system": "normal mice", "assay": "Test of acute toxicity by oral administration", "format": "in vivo", "settings": "18.95 g/kg and 9.47 g/kg drenched one time; executed after 7 days", "from_the_text": "1) Experimental Method • 20 Normal mice (half male and half female) were divided into two groups (each group had 10 mice), and drenched with 18.95 g/kg and 9.47 g/kg one time, wherein the higher dose reached the maximum concentration and the maximum administration volume. The animals' responses were observed. The mice were executed after 7 days, and their organs were macroscopically observed."}, "normal mice [7]": {"system": "normal mice", "assay": "General pharmacology in mice", "settings": "mouse, in vivo", "from_the_text": "(§1) • 1. Guidelines for Studying New Drugs (Pharmacy, Pharmacology, Toxicology), Bureau of Drug Administration, the Ministry of Health of the People's Republic of China • 2. Chen Q I, Methodology for Studying Pharmacology of Chinese Medicine, People' Medical Publishing House, 1st Edition, 1993, 118-119 III. Studies on General Pharmacology • The effects of Sequoyitol on general physical signs and spontaneous movement of normal mice, on Pentobarbital hours of sleep of mice, and on respiratory movement, blood pressure, cardiac rhythm and electrocardiogram of rats were observed."}, "rats": {"system": "rats", "assay": "General pharmacology in rats", "settings": "rat, in vivo", "from_the_text": "as §1"}, "[8]": {"settings": "Sequoyitol 25 mg/kg oral 7 days"}, "[9]": {"settings": "Sequoyitol 100 mg/kg oral 7 days"}, "[10]": {"settings": "25 and 50 mg/kg Sequoyitol groups, p.o. 18 days"}, "[11]": {"settings": "Sequoyitol 100 mg/kg p.o. 18 days"}, "[12]": {"settings": "Sequoyitol groups (25, 50, 100 mg/kg p.o. 18 days)"}},
  "data": [
    {"smiles": "COC1C(O)C(O)C(O)C(O)C1O", "note": "(stereo not drawn) [Sequoyitol, 5-O-methyl-myo-inositol]", "values": [
      {"measurement": "effect of alleviating hyperglycemia compared with phenformine", "setting": "[1]; 60 mg/kg Sequoyitol vs 75 mg/kg phenformine", "value": "higher than that of 75 mg/kg phenformine"},
      {"measurement": "blood-sugar level decreased compared to the control group", "setting": "[1]; 1 hour after last administration", "value": 100.0, "unit": "mg/dL"},
      {"measurement": "blood-sugar level decreased compared to the control group", "setting": "[1]; 2 hours after last administration", "value": 140.7, "unit": "mg/dL"},
      {"measurement": "blood-sugar level decreased compared to the control group", "setting": "[1]; 3 hours after last administration", "value": 193.9, "unit": "mg/dL"},
      {"measurement": "blood-sugar level decreased compared to the control group", "setting": "[1]; 5 hours after last administration", "value": 174.6, "unit": "mg/dL"},
      {"measurement": "alloxan-induced hyperglycemia compared to the control group", "setting": "[2]; Sequoyitol 25 mg/kg p.o. 7 days", "value": "alleviated"},
      {"measurement": "blood-sugar level decreased compared to the control group", "setting": "[2]; Sequoyitol 50 mg/kg p.o. 7 days", "value": 195.2, "unit": "mg/dL"},
      {"measurement": "blood-sugar level decreased compared to the control group", "setting": "[2]; Sequoyitol 100 mg/kg p.o. 7 days", "value": 306.8, "unit": "mg/dL"},
      {"measurement": "number of pancreatic islands and number of islet cells (histopathologic examination) compared to the model group", "setting": "[2]; Sequoyitol groups (25, 50, 100 mg/kg p.o. 7 days)", "value": "increased significantly"},
      {"measurement": "hepatic glycogen level increased compared to the control group", "setting": "[3]; Sequoyitol 20 mg/kg (so in the source) oral 7 days", "value": "1.24 mg/g of liver tissue"},
      {"measurement": "blood-sugar level decreased compared to the control group", "setting": "[3]; [8]", "value": 32.2, "unit": "mg/dL"},
      {"measurement": "hepatic glycogen level increased compared to the control group", "setting": "[3]; [8]", "value": "1.76 mg/g of liver tissue"},
      {"measurement": "blood-sugar level decreased compared to the control group", "setting": "[3]; Sequoyitol 50 mg/kg oral 7 days", "value": 35.5, "unit": "mg/dL"},
      {"measurement": "blood-sugar level decreased compared to the control group", "setting": "[3]; [9]", "value": 39.9, "unit": "mg/dL"},
      {"measurement": "hepatic glycogen level increased compared to the control group", "setting": "[3]; [9]", "value": "1.24 mg/g of liver tissue"},
      {"measurement": "effect for alleviating hyperglycemia compared with phenformine", "setting": "[4]; 100 mg/kg Sequoyitol vs 75 mg/kg phenformine", "value": "equivalent to that of 75 mg/kg phenformine"},
      {"measurement": "glucose-induced hyperglycemia compared to the control group", "setting": "[4]; 25 and 50 mg/kg Sequoyitol groups, oral 7 days, 30, 60, 90 minutes after i.p. glucose", "value": "significantly alleviated"},
      {"measurement": "glucose-induced hyperglycemia compared to the control group", "setting": "[4]; Sequoyitol 100 mg/kg oral 7 days, 30, 60, 90, 120 minutes after i.p. glucose", "value": "highly significantly alleviated"},
      {"measurement": "blood-sugar level decreased compared to the control group", "setting": "[4]; Sequoyitol 100 mg/kg oral 7 days, 90 minutes after i.p. glucose", "value": 24.5, "unit": "mg/dL"},
      {"measurement": "content of cholesterol in serum compared to the control group", "setting": "[5]; [10]", "value": "decreased"},
      {"measurement": "content of malonaldehyde in liver tissue compared to the control group", "setting": "[5]; [10]", "value": "significantly decreased"},
      {"measurement": "content of triglyceride in serum compared to the control group", "setting": "[5]; [10]", "value": "significantly decreased"},
      {"measurement": "serum insulin level compared to the control group", "setting": "[5]; 50 and 100 mg/kg Sequoyitol groups, p.o. 18 days", "value": "significantly increased"},
      {"measurement": "body weight of diabetes mice compared to the control group", "setting": "[5]; 50 and 100 mg/kg Sequoyitol groups, p.o., since the 7th day", "value": "significantly increased"},
      {"measurement": "serum insulin level compared to the control group", "setting": "[5]; Sequoyitol 25 mg/kg p.o. 18 days", "value": "increased"},
      {"measurement": "body weight of diabetes mice compared to the control group", "setting": "[5]; Sequoyitol 25 mg/kg p.o., since the 11th day", "value": "increased"},
      {"measurement": "blood-sugar level decreased compared to the control group", "setting": "[5]; Sequoyitol 50 mg/kg p.o., 12th day", "value": 121.4, "unit": "mg/dL"},
      {"measurement": "content of cholesterol in serum compared to the control group", "setting": "[5]; [11]", "value": "significantly decreased"},
      {"measurement": "content of malonaldehyde in liver tissue compared to the control group", "setting": "[5]; [11]", "value": "highly significantly decreased"},
      {"measurement": "content of triglyceride in serum compared to the control group", "setting": "[5]; [11]", "value": "highly significantly decreased"},
      {"measurement": "hyalinization of interstitial small vessels (histopathologic examination)", "setting": "[5]; [11]", "value": "alleviated"},
      {"measurement": "serum insulin level increased compared to the control group", "setting": "[5]; [11]", "value": 6.53, "unit": "μlU/ml"},
      {"measurement": "activity of hepatocuprein in serum compared to the control group", "setting": "[5]; [12]", "value": "highly significantly increased"},
      {"measurement": "inflammatory cell infiltration (histopathologic examination)", "setting": "[5]; [12]", "value": "inhibited"},
      {"measurement": "number of pancreatic islands and number of cells in pancreatic islands (histopathologic examination) compared to the model group", "setting": "[5]; [12]", "value": "increased significantly"},
      {"measurement": "main organs under macroscopic observation", "setting": "normal mice [6]", "value": "free of abnormality"},
      {"measurement": "effect on Pentobarbital hours of sleep of mice", "setting": "normal mice [7]", "value": "did not significantly affect"},
      {"measurement": "effect on spontaneous movement of mice", "setting": "normal mice [7]", "value": "did not significantly affect"},
      {"measurement": "effect on blood pressure of rats", "setting": "rats", "value": "did not significantly affect"},
      {"measurement": "effect on cardiac rhythm of rats", "setting": "rats", "value": "did not significantly affect"},
      {"measurement": "effect on electrocardiogram of rats", "setting": "rats", "value": "did not significantly affect"},
      {"measurement": "effect on respiratory movement of rats", "setting": "rats", "value": "did not significantly affect"}
    ]}
  ]
}
